Test results from PMC7574625 (ACS Catalysis, 2020).
Where a chain is given by its changes, count along the chain named.

What was measured:
LmrR A92Q = biological target: T1, LmrR A92Q (Lactococcus cremoris, UniProt A2RI36, A92Q); assay: binding affinity
T1 sequence (A2RI36 1-116 A92Q): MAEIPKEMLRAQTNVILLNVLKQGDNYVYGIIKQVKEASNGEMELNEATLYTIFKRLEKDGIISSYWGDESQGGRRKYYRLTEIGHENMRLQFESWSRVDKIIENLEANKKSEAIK

LmrR_A92E = biological target: T2, LmrR_A92E (Lactococcus cremoris, UniProt A2RI36, A92E); assay: binding affinity
T2 sequence (A2RI36 1-116 A92E): T1 sequence (A2RI36 1-116 A92Q) with Q92E

Kd (LmrR A92Q): 0.103 ± 0.041 µM
Kd (LmrR_A92E): 0.065 ± 0.019 µM
SMILES: [Cu+2].c1cnc2c(c1)ccc1cccnc12 [Cu(II)-phen]
